The test system of data set [1] is GAA repeat RNA–containing foci.
Data set [2] is described as follows: clinical. The following applies: human, in vivo, po; for half-life: t½ (elimination half-life).
The subject of data set [3] is GAA•TTC repeats.
For data set [4] the following is noted: human, in vivo, po.
Data set [5] concerns FXN mRNA. Description: qRT-PCR analysis of FXN mRNA expression in FRDA iPSC-derived neurons. The class given is cell-based, human. The following applies: 10μM, 24-hour treatment.
The test system of data set [6] is HDAC3 versus HDAC1/2. The following applies: cited from earlier work.
The subject of data set [7] is FXN mRNA and protein. The following applies: cited from earlier work; for upregulation of FXN mRNA and protein: patient PBMCs.
Data set [8] deals with human ether-a-go-go related gene (hERG) (Homo sapiens, UniProt Q12809). Description: Automated patch clamp assay. Format: cell-based.
Data set [9] has as its system FXN transcription. The following applies: doses up to 8g per day; cited from earlier work.
For data set [10], the system named is voltage-gated Na+ channel. The class given is cell-based, human.

Several values for one entry are separate records, joined by “and”; a condition that tells them apart may be missing. Equal entries are not always repeated. Where two headings read alike, the source gives them in different places.

human ether-a-go-go related gene (hERG), sequence (Q12809 whole entry): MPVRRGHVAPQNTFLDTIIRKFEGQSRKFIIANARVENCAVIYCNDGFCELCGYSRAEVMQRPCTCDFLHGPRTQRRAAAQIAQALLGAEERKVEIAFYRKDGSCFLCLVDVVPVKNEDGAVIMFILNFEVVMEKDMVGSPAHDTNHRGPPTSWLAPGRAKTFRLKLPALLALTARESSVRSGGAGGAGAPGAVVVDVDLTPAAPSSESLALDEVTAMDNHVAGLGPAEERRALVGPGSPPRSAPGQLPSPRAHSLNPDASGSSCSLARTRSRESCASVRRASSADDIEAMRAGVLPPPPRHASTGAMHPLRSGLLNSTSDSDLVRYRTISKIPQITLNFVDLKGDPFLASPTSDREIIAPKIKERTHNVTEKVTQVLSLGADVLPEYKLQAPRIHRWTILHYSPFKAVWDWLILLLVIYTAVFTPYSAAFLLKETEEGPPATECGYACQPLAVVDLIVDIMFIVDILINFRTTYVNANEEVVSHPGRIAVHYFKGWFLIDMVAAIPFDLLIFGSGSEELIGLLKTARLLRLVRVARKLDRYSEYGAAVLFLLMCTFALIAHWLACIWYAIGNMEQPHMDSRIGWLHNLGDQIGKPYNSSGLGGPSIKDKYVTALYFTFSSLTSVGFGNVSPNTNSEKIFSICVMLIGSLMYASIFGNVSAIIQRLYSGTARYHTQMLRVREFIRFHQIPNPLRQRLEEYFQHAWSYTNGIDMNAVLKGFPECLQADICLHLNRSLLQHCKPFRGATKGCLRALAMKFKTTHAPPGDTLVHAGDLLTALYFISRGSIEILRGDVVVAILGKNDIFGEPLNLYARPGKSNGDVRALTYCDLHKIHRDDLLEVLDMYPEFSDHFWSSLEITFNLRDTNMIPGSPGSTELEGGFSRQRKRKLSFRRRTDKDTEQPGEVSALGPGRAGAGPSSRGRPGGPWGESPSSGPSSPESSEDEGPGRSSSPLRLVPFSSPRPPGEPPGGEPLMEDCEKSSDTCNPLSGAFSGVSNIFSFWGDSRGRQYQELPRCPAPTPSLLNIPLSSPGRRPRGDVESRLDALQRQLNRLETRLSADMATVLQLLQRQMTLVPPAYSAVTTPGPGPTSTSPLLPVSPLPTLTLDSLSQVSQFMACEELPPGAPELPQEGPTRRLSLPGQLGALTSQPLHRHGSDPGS

On to `Cc1ccc(C(=O)NCCCCCC(=O)Nc2ccccc2N)cc1` [HDACi 109, N-[6-(2-aminophenylamino) −6-oxohexyl]-4-methylbenzamide], for which the RNA nuclear foci entry in [1] is recorded as “lack of RNA nuclear foci”. Moreover, the AUC(0-inf) in data set [2] came out at 39600 ng·h/mL; in [2] (30 mg) it was 7760 ng·h/mL; in data set [2] (60 mg), 9720 ng·h/mL; in data set [2] (120 mg) it was 22000 ng·h/mL; in data set [2] (180 mg) it was 35100 ng·h/mL. Also, the area under the curve AUC(0-t) is 39300 ng·h/mL in [2]; 7700 ng·h/mL in data set [2] (30 mg); 9630 ng·h/mL in data set [2] (60 mg); 21700 ng·h/mL in data set [2] (120 mg); 34900 ng·h/mL in data set [2] (180 mg). Besides, the CL/F in data set [2] was 1.98 mL/min/kg; in data set [2] (30 mg), 1.02 mL/min/kg; in [2] (60 mg) it was 1.45 mL/min/kg; in [2] (120 mg), 1.42 mL/min/kg; in [2] (180 mg) it was 1.65 mL/min/kg; in data set [4], 6.39±1.71 (5) l/h. The CL/F in [4] (30 mg) is reported as 3.91±0.59 (2) l/h; in [4] (60 mg) it was 6.43±1.51 (3) l/h; in data set [4] (120 mg), 5.80±1.46 (5) l/h; in data set [4] (180 mg), 5.24±0.89 (5) l/h. The peak concentration (Cmax) in data set [2] was 7150 ng/mL; in [2] (30 mg), 1980 ng/mL; in data set [2] (60 mg), 2560 ng/mL; in data set [2] (120 mg), 6470 ng/mL; in [2] (180 mg), 10900 ng/mL. The Tmax in [2] was determined as 0.5 h; in data set [2] (30 mg), 0.67 h; in data set [2] (60 mg) it was 0.67 h; in data set [2] (120 mg) it was 1 h; in data set [2] (180 mg) it was 0.67 h. The Vd/F in data set [2] is 75.5 L and 1.41 L/kg; in data set [2] (30 mg), 45.1 L and 0.69 L/kg; in data set [2] (60 mg), 79 L and 1.04 L/kg; in [2] (120 mg), 89.7 L and 1.32 L/kg; in data set [2] (180 mg), 52.8 L and 1 L/kg. Moreover, the k el in data set [2] was 2.34e-05 s⁻¹; in data set [2] (30 mg), 2.49e-05 s⁻¹; in data set [2] (60 mg), 2.37e-05 s⁻¹; in data set [2] (120 mg), 2.05e-05 s⁻¹; in data set [2] (180 mg), 2.82e-05 s⁻¹. The half-life in data set [2] (30 mg) was 8.2 h; in data set [2] (60 mg), 8.43 h; in data set [2] (120 mg), 10.1 h; in data set [2] (180 mg) it was 7.07 h; in data set [2], 8.56 h. Further, in data set [3], the “GAA•TTC repeat instability” value is “no effect on repeat instability”. The “Cmax (time of)” value in data set [4] is at most 2 h.
As to `Nc1ccc(-c2cccs2)cc1NC(=O)CCCCCCNC(=O)c1cccnc1` [HDACi 233, N-[2-amino-5-(2-thienyl)phenyl]-7-nicotinoylamino-heptanamide], the “FXN gene expression induction compared with HDACi 109” value in data set [5] is “Neither of these latter compounds induced FXN gene expression to the extent observed with HDACi 109”.
Turning to `Nc1cc(F)ccc1NC(=O)/C=C/c1cnn(CC=Cc2ccccc2)c1` [HDACi 966, [E]-N-[2-amino-4-fluorophenyl]-3-[1-cinnamyl-1H-pyrazol-4-yl]acrylamide], the “FXN gene expression induction compared with HDACi 109” value in data set [5] is “Neither of these latter compounds induced FXN gene expression to the extent observed with HDACi 109”. The “selectivity for HDAC3 over HDAC1/2” value in [6] is reported as ~ 30 fold.
With `Nc1ccc(-c2ccccc2)cc1NC(=O)CCCCCC(=O)Nc1ccccc1` [N[1]-[4-aminobiphenyl-3-yl]-N[7]-phenylheptanediamide], in [7] (patient lymphocytes), the FXN upregulation entry is “inactive”.
`O=C(CCCCCCC(=O)Nc1ccccc1)NO` [SAHA, suberoylanilide hydroxamic acid]: in data set [7], the “upregulation of FXN mRNA and protein” value was “fail to elicit this effect”.
Consider `c1ccc2[nH]cnc2c1` [benzimidazole], for which, in data set [8], half-maximal inhibition (IC50) was put at 920 nM. This lies in the sub-micromolar range.
For `NC(=O)c1cccnc1` [nicotinamide], in data set [9], the “restoring FXN transcription in peripheral lymphocytes from blood of orally dosed patients” value is “effective”.
Consider `NC1=N[C@H](O)[C@H]2[C@H]3O[C@]4(O)O[C@@H]([C@@H](O)[C@@]2(N1)[C@@H]4O)[C@]3(O)CO` [tetrodotoxin], for which the action potential generation entry in data set [10] is “reversibly blocked AP generation”.
In the case of `Cc1ccc(S(=O)(=O)O)cc1` [toluene sulfonic acid], the “upregulation of FXN mRNA and protein” value in data set [7] was “fail to elicit this effect”.

The values are drawn from paper PMC4361037 (Annals of neurology, 2014).
